Data reported in patent publication US5472684A, “Oral compositions for plaque and gingivitis” (Colgate Palmolive Company, priority 1993, dated 1995).
Like-named read-outs stand apart in the source and are kept apart here.

Assays:
Plaque [1] = test: 4-day plaque regrowth in a clinical study in humans, plaque score; assay type: in vivo
Description: (§1) The efficacy of natural product rinse on the reduction of plaque was evaluated in a clinical study in humans. The study was randomized, blind, 3 cells cross-over design to measure the effects of each rinse on 4 day plaque growth from a zero baseline. […] On the other hand, 0.2% chlorhexidine rinse, clinically proven for plaque and gingivitis effect, inhibited 48.0% and 78.0% regrowth of plaque measured by score and area, respectively under similar conditions.

Plaque [2] = test: 4-day plaque regrowth in a clinical study in humans, plaque area; assay type: in vivo
Description: as §1

Actinomyces viscosus = test: MIC of natural flavoring agents vs. A. viscosus, standard serial dilution method; assay type: cell-based; details: for MIC: Actinomyces viscosus, read-out: Antibacterial Activity vs. A. viscosus MIC; for antibacterial activity against A. viscosus (in words): from MIC data of Table 1
Description: The antibacterial activities of a number of natural flavoring agents were evaluated against Actinomyces viscosus, a dental plaque bacterium, by measuring the minimum inhibitory concentration (hereinafter referred to as MIC) of the respective agents in vitro according to the standard serial dilution method delineated in N. Nabi et al., Am. J. Dent. 2: 197:206, 1989 which is incorporated herein by reference. The MIC is defined for the purpose of this invention to mean the concentration of a particular agent at which no bacterial growth was observed. The natural flavoring agents used were obtained from commercial sources available in organic or aqueous solvents. The antibacterial compound, Triclosan, was used as a positive Control. Triclosan is 2,4,4'-trichloro-2'-hydroxydiphenyl ether.

plaque and gingivitis = details: toothpaste and mouthrinse containing Triclosan, humans; cited from earlier work
[3] = system: bacterial plaque formation; test: Chemostat Plaque Model in vitro (flow cell system, artificial mouth); assay type: cell-based; details: about 0.5 wt % eucalyptol or about 0.01 wt. % sage oil added to rinse (2)
Description: The effect of natural product rinse (2) to inhibit bacterial plaque formation in vitro was assessed using the Chemostat Plaque Model according to methods of A. Gaffar et al. described in Am. J. Dent., 3, p. S7-S14, 1990. This in vitro model simulates the actual saliva and tooth surface interactions with respect to the plaque formation in the mouth and assesses the interactions, at biophysical and surface chemical level, of saliva-coated bacteria to saliva-coated surfaces with a surface energy similar to dental enamel.

[4] = 4-day plaque regrowth, rinsed twice daily, fifteen volunteers
[5] = after 4 days, compared with 0.9% saline rinse, p < 0.001
[6] = in vitro, serial dilution, concentration at which no bacterial growth was observed

SMILES: [H]/N=C(\N/C(=N/[H])NCCCCCCNC(=N)NC(=N)Nc1ccc(Cl)cc1)Nc1ccc(Cl)cc1 [Chlorhexidine]
- Plaque Score (Plaque [1]; [4]): 0.128 +/- 0.068
- Plaque Reduction % (plaque score) (Plaque [1]; [5]): 48.0%
- Plaque Area (Plaque [2]; [4]): 0.069 +/- 0.055
- Plaque Reduction % (plaque area) (Plaque [2]; [5]): 78.0%

SMILES: C=CCc1ccc(O)c(OC)c1 [Eugenol]
- MIC (Actinomyces viscosus; [6]): 25 mg/L
- antibacterial activity against A. viscosus (in words) (Actinomyces viscosus): most active

SMILES: CC(C)=CCCC(C)=CCCC(C)=CCO [Farnesol]
- MIC (Actinomyces viscosus; [6]): 25 mg/L
- antibacterial activity against A. viscosus (in words) (Actinomyces viscosus): excellent antibacterial activity equivalent to thymol or eugenol
- antibacterial activity against A. viscosus (in words) (Actinomyces viscosus; listed as farnesol): most active

SMILES: Cc1ccc(C(C)C)c(O)c1 [Thymol]
- MIC (Actinomyces viscosus; [6]): 25 mg/L
- antibacterial activity against A. viscosus (in words) (Actinomyces viscosus): most active

SMILES: Oc1cc(Cl)ccc1Oc1ccc(Cl)cc1Cl [Triclosan, 2,4,4'-trichloro-2'-hydroxydiphenyl ether, reference compound]
- effect on plaque and gingivitis (in words) (plaque and gingivitis): reduce plaque and gingivitis
- MIC (Actinomyces viscosus): 5 mg/L

SMILES: CC12CCC(CC1)C(C)(C)O2 [eucalyptol]
- antiplaque activity on addition to natural product rinse (2) (in words) [3]: increases the antiplaque activity
